Literature values, collected in patent US20120077872A1, “PRESERVATIVE-FREE PHARMACEUTICAL TETRAHYDROLIPSTATIN COMPOSITIONS” (EMS S.A., priority 2009, published 2012).

Settings: stored at dry atmosphere

- temperature at which degradation starts: around 40 °C
Structure (SMILES): CCCCCCCCCCC[C@@H](C[C@@H]1OC(=O)[C@H]1CCCCCC)OC(=O)[C@H](CC(C)C)NC=O [THL, N-Formyl-L-leucine (1S)-1-[[(2S,3S)-3-hexyl-4-oxo-2-oxetanyl]methyl]dodecyl ester]
